Peptide text beside a SMILES is read from it. * marks the point of attachment. Cbz = O=C(OCc1ccccc1)*

Data set [1] relates to HEI-193 cells. The data set can be described thus: Tumorsphere formation assay, HEI-193 cells. In kind it is cell-based, human. As to conditions: HEI-193 cells, 10 μM, DMEM/F12 medium. How it is done:
(§1) For tumorsphere formation assay, Hei-193 or mouse schwannoma cells (3×10^6 cells/plate) were cultured in DMEM/F12 medium (supplemented with 2% B27 and 40 ng/ml bFGF) and added with the indicated chemicals on non-coated plates for indicated days.

Data set [2] concerns TGF-β signaling. Put plainly: Smad2/3 phosphorylation after TGF-β1 in HEI-193 cells. In kind it is cell-based, human. As to conditions: 10 μM, TGF-β1 2 ng/ml added after 12 h for 12 h (FIG. 5D). How it is done:
(§2) Cells were harvested and lysed using RIPA buffer [50 mM Tris-Cl, pH 7.5, 150 mM NaCl, 1% NP-40, 0.1% SDS, and 10% sodium deoxycholate] to examine cellular signaling. Protein concentrations in samples were measured using Bio-Rad (Hercules, CA, USA) protein assay kits and BSA standards. The samples (20 μg protein per lane) were separated by sodium dodecyl sulfate-polyacrylamide gel electrophoresis (SDS-PAGE), transferred to Immobilon-P^SQ transfer membranes (Millipore Corp., MA, USA), which were then cultured with 3% skim milk-containing TBS-T buffer (Tris-HCl-based buffer containing 20 mM Tris pH 7.6, 150 mM NaCl, and 0.05% Tween 20) for 1 hour at room temperature and then reacted with primary antibody in TBS-T overnight at 4° C. The membranes were then washed and reacted with secondary horseradish peroxidase (HRP)-conjugated antibodies [goat anti-mouse, goat anti-rabbit, and mouse anti-goat antibodies (Pierce, Thermo Fisher Scientific, Inc., Rockford, IL, USA)] in TBS-T at room temperature for 2 hours. The blots were detected using an HRP-conjugated secondary antibody using ECL kit (Intron, Seoul, Korea).

The subject of data set [3] is schwannoma. As to conditions: Mol Cancer Ther 17, 2271-2284, 2018; cited from earlier work.
The test system of data set [4] is mouse schwannoma cells. The data set can be described thus: Tumorsphere formation assay, mouse schwannoma cells. It counts as cell-based. Particulars: 10 μM, DMEM/F12 medium. How it is done:
as §1

Data set [5] relates to SOX2. The data set can be described thus: SOX2 localization by IF and cell fractionation in HEI-193 cells. Particulars: 2 μM, 24 h, IF and cell fractionation (FIGS. 15C, 15D). It counts as cell-based, human. How it is done: Cells were seeded on cover glass, washed with PBS, fixed with 4% paraformaldehyde (PFA) for 30 minutes at room temperature, and then permeabilized with 0.2% Triton X-100 at room temperature for 5 minutes. After treatment with blocking buffer [3% goat serum diluted in PBS] for 1 hour, cells were reacted with the specified antibody in the blocking buffer overnight at 4° C. Finally, the cells were reacted with secondary antibodies conjugated with FITC or rhodamine at 4° C. for 7 hours. The nuclei were stained with DAPI at room temperature for 10 minutes. After the cells were washed 3 times with PBS, the cover glass was mounted with a mounting solution (H-5501, Vector Laboratories, Cambridgeshire, UK) and immunofluorescence signals were detected using a fluorescence microscopy (Zeiss, Jena, Germany).

Data set [6] concerns HEI-193 cells. Put plainly: MTT cell viability assay in HEI-193 cells. It counts as cell-based, human. Particulars: 10 μM, 48 h. How it is done: (§3) To measure cell viability, MTT (3-(4,5-dimethylthiazol-2-yl)-2,5-diphenyltetrazolium bromide) assay was used. In other words, the cells were seeded in 96-well plates and treated with the indicated chemicals for a predetermined time. After removing the medium, 200 μl of MTT solution (0.5 mg/ml) dissolved in PBS was added to each well. Plates were then cultured at 37° C. for 4 hours, the MTT solution was removed, the precipitated substances were dissolved using a solution (DMSO:ethanol=1:1), and an amount of formazan dye produced was quantified by measuring the absorbance at 560 nm using an ELISA microplate reader (Thermo Fisher Scientific, MA, USA).

Data set [7] relates to mouse schwannoma cells. Put plainly: MTT cell viability assay in mouse schwannoma cells. It counts as cell-based. As to conditions: mouse schwannoma (NF2 mouse) cells, 10 μM, 48 h. On the procedure: as §3
In data set [8] the target is T1, interaction between TβR1 and RKIP (Homo sapiens, UniProt P30086+P36897).
T1 construct: host or cells: HEK293 (TβR1 lysate)
T1 sequence (P30086 whole entry): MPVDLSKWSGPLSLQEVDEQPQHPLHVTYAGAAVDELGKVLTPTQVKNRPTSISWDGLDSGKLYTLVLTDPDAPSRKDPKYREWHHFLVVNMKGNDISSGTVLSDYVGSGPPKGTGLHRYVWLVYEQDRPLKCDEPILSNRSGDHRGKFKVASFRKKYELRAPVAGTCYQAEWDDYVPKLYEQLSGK
T1 sequence (P36897 34-503): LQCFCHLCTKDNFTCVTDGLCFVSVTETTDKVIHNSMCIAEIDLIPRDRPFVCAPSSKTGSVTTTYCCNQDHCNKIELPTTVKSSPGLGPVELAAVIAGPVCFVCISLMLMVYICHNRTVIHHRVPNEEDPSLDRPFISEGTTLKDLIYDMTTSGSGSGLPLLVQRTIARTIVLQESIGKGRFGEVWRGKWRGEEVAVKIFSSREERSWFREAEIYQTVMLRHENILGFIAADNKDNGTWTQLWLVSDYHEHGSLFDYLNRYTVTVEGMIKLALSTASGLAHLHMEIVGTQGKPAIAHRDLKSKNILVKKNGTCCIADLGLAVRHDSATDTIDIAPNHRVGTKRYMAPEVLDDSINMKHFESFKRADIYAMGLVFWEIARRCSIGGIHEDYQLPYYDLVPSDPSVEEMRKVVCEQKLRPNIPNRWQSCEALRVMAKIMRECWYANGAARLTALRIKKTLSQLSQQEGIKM
The data set can be described thus: GST-pull down assay of TβR1-RKIP interaction. In kind it is binding. As to conditions: GST-RKIP beads with TβR1-transfected HEK293 lysates, 5 and 10 μM, 2 h (FIG. 5B). On the procedure: For protein-protein interaction analysis, glutathione S-transferase (GST)-pull down assay was performed. For GST-pull down, agarose-bead-conjugated GST-RKIP recombinant protein was reacted with FLAG-tagged TβR1-transfected HEK 293 cell lysates in PBS buffer at 4° C. for 1 hour. Immunoprecipitation (IP) assay was performed by reacting with FLAG-tagged TβR1- or HA-tagged RKIP-transfected HEI-193 cell lysates in PBS buffer. Whole lysates were reacted with appropriate primary antibodies at 4° C. for 2 hours and with agarose-bead-conjugated protein A/G (Invitrogen, Carlsbad, CA, USA) for 2 hours. After centrifugation, the precipitates were washed twice with RIPA buffer and subjected to SDS-PAGE and western blotting analysis.

In data set [9] the test system is RKIP. Put plainly: RKIP expression by Western blotting in HEI-193 cells. In kind it is cell-based, human. As to conditions: compounds 10 μM, 24 h (FIG. 1A) or 72 h (FIG. 2), Western blot. On the procedure:
as §2
Because RKIP degradation in NF2 cells is clearly known (Mol Cancer Ther 17, 2271-2284, 2018), after first treating 260 novel synthetic compounds, RKIP expression was measured in HEI-193, a human NF2 cell line.

Data set [10] relates to normal fibroblasts. The data set can be described thus: MTT cell viability assay in normal fibroblasts. In kind it is cell-based, human. Particulars: 10 μM, 48 h (FIG. 3). How it is done: as §3
Data set [11] deals with HEI-193 cells. The data set can be described thus: Western blotting of marker proteins in HEI-193 cells. In kind it is cell-based, human. Particulars: HEI-193 cells pretreated 6 h with leptomycin B 2 ng/ml or MG132 5 μM, then 10 μM compounds 24 h (FIGS. 14F, 14G). On the procedure: as §2

With `Cc1cccc(-c2[nH]c(CNc3ccccc3F)nc2-c2ccc3ncnn3c2)n1` [TEW7197, N-((4-([1,2,4]triazolo[1,5-a]pyridin-6-yl)-5-(6-methylpyridin-2-yl)-1H-imidazol-2-yl)methyl)-2-fluoroaniline, reference compound], the tumorsphere formation entry in [1] and in data set [4] was “weak inhibitory effect” in each case. In addition, the “Smad2/3 phosphorylation in response to TGF-β” value in data set [2] is “TGF-β signal inhibition”. The “schwannoma in a mouse model with NF2 syndrome” value in [3] is “inhibited schwannoma”. In addition, the “localization of nuclear SOX2” value in data set [5] was “moved to the cytosol”. Also, the “cell viability (MTT)” value in data set [6] and in data set [7] was “suppressed cell viability” throughout.

As for `CCN(CC)CCOc1ccc(-c2nnn(Cc3ccc(OCc4ccccc4)cc3)c2NC(=O)OC(C)(C)C)cc1` [NF-08001], in [8], the “interaction between TβR1 and RKIP” value was “inhibitory effect”. For the same molecule, the RKIP expression entry in data set [9] is given as “induction of RKIP”. In addition, the “cytotoxicity in normal cells (MTT)” value in [10] is listed as “exhibited normal cytotoxicity”. In data set [6], the “cell viability (MTT)” value was “anti-proliferating effect”.

For `CCC(=C/[C@H](C)C/C=C/C(C)=C/[C@@H](C)C(=O)[C@@H](C)[C@H](O)[C@@H](C)C/C(C)=C/C(=O)O)/C=C/[C@@H]1OC(=O)C=C[C@@H]1C` [leptomycin B, reference compound], the “PRG-N-01/TEW7197-induced reduction in SOX2” value in data set [11] is “blocked”.

With `CC(C)C[C@@H](C=O)NC(=O)[C@H](CC(C)C)NC(=O)[C@H](CC(C)C)NC(=O)OCc1ccccc1` [MG312, reference compound] (Cbz-Leu-Leu-Leu-aldehyde), the “PRG-N-01/TEW7197-induced reduction in SOX2” value in [11] is recorded as “blocked”.
